# Like-named read-outs stand apart in the source and are kept apart here.
# Legend:
# [1] = tested on: space recognition disorders induced by scopolamine; experiment: Test on memory and study of rat using radial maize (scopolamine-induced space recognition disorder); format: in vivo
# Excerpt: Test on memory and study of rat using radial maize
# Rats under feed control were put at the central platform (diameter: 25 cm) of an 8-way radial maize (length and width of arm: 48 cm and 10 cm, 40 cm, height from the ground) and trained until they could efficiently take the feed put on the tip of the arm. Numbers of correct choices for the arms where the rats reached for the first time, number of incorrect choices for the arms where the rats reached two or more times and running time until completion of the session were measured for 10 minutes at maximum. When the results with not less than 7 correct choices were shown in 3 continuous sessions it was estimated that acquirement of space recognition was completed. Space recognition disorder was induced in the rats by administering 0.5 mg/kg of scopolamine (i.p., 30 minutes before the session) to study each activity of (±) rolipram, (+) rolipram and (-) rolipram (all administered p.o., 60 minutes before the session).
# [2] = tested on: memory and learning deficits; experiment: overall conclusion from the experimental results using mice and rats; format: in vivo
# [3] = tested on: memory and learning disorders induced by scopolamine; experiment: 3-panel runway device: activity against memory and learning disorders induced by scopolamine; format: in vivo, rat
# Description: A 3-panel runway device (length: 175 cm, width: 36 cm and height: 25 cm) comprises a start box, four gateways equipped with three-panel gates and a goal box in which feed are put as the reward. The panel gates were designed so that only one of three panel gates in each gateway might be passable. Training of hungry rats to go out of the start box, reach the goal box and take the feed was made by continuous 6 sessions in 2 minute intervals. The training was carried out every day with the passable panel gate being varied every day. In the test, (1) time taken for the rat to reach the goal box and take the feed after it left the start box, and (2) the number of incorrect choices that the rat made trying to pass the impassable gate were recorded and measured in each session. Rats satisfying for consecutive 3 days the criterion that the total time for 6 sessions in one day was within 60 seconds, the total number of incorrect choices was under 12 and the number of incorrect responses in sessions 2 to 6 was not greater than 8 were estimated to have completely learned. The rats are used for the following test.
# mouse = mouse acute toxicity test of rolipram; settings: in vivo
# Excerpt: (§1) The results of mouse acute toxicity test of rolipram are as follows.
# [4] = mouse acute toxicity test of rolipram; settings: in vivo, read-out: ED50 Value (acute toxicity)
# Excerpt: as §1
# [5] = tested on: cerebral ischemia-induced learning and memory disorders; experiment: 3-panel runway device: effect on cerebral ischemia-induced learning and memory disorders; format: in vivo, rat; settings: for number of incorrect responses, Session 1 / number of incorrect responses, Session 2 / number of incorrect responses, Session 3 / number of incorrect responses, Session 4 / number of incorrect responses, Session 5 / number of incorrect responses, Session 6: cerebral ischemia; for minimal effective dose: ip, i.p., read-out: dose improving the disorders induced by cerebral ischemia
# Description: A 3-panel runway device (length: 175 cm, width: 36 cm and height: 25 cm) comprises a start box, four gateways equipped with three-panel gates and a goal box in which feed are put as the reward. The panel gates were designed so that only one of three panel gates in each gateway might be passable. Training of hungry rats to go out of the start box, reach the goal box and take the feed was made by continuous 6 sessions in 2 minute intervals. The training was carried out every day with the passable panel gate being varied every day. […] The rats are used for the following test. According to the method of Pulsinelli et al., the both vertebral arteries of rat were burnt and cut under anesthesia with pentobarbital. After 24 hours, the whole carotid artery on both sides was blocked for 5 minutes under no anesthesia.
# [6] = tested on: mouse in oxygen-short state; experiment: Activity on survival time of mouse in oxygen-short state; format: in vivo; settings: for Survival Time: 30 minutes before carbon dioxide, Control 195.8 ± 3.7
# Description: Activity on survival time of mouse in oxygen-short state
# Mice were put in a plastic box of 150 cm each in length, width and height, and carbon dioxide was injected from a lower inlet at a rate of 500 ml/min. The period from the start of injection to the respiratory standstill of mice was counted as the survival time. (±) Rolipram, (+) rolipram, and (-) rolipram were all intraperitoneally administered to mice 30 minutes before carbon dioxide was loaded.
# [7] = 0.02 mg/kg p.o., 60 minutes before session, + scopolamine 0.5 mg/kg i.p.
# [8] = 0.1 mg/kg i.p. + scopolamine 0.56 mg/kg
# [9] = 10 mg/kg p.o., 60 minutes before session, + scopolamine 0.5 mg/kg i.p.
# [10] = 1 mg/kg i.p. + scopolamine 0.56 mg/kg
# [11] = 0.01 mg/kg p.o., 60 minutes before session, + scopolamine 0.5 mg/kg i.p.
# [12] = 0.032 mg/kg i.p. + scopolamine 0.56 mg/kg
# [13] = scopolamine alone 0.56 mg/kg i.p.
smiles,measurement,setting,value
COc1ccc(C2CNC(=O)C2)cc1OC1CCCC1 (racemic) [(±) Rolipram],Number of Correct Choice,[1]; [7],6.9 ± 0.2
same,Number of Incorrect Choice,[1]; [7],2.3 ± 1.1
same,minimal effective dose,"[1]; Rattus norvegicus, po, rat, p.o., read-out: dose showing the activity of improving space recognition disorders induced by scopolamine",0.02 mg/kg
same,activity of improving memory and learning deficits,[2],showed the activity of improving memory and learning deficits
same,potency order in improving memory and learning deficits,[2],"more potent order of (-) rolipram, (±) rolipram and (+) rolipram"
same,"number of incorrect responses, Session 1",[3]; [8],5.67
same,"number of incorrect responses, Session 2",[3]; [8],3.00
same,"number of incorrect responses, Session 3",[3]; [8],1.67
same,"number of incorrect responses, Session 4",[3]; [8],1.00
same,"number of incorrect responses, Session 5",[3]; [8],1.00
same,"number of incorrect responses, Session 6",[3]; [8],1.17
same,minimal effective dose,"[3]; Rattus norvegicus, ip, rat, i.p., read-out: dose inhibiting the increase in the number of incorrect responses induced by scopolamine",0.1 mg/kg
same,safety,mouse,highly safe
same,LD50,[4]; ip,1500 mg/kg
same,LD50,[4]; po,4000 mg/kg
same,"number of incorrect responses, Session 1",[5]; 0.1 mg/kg i.p.,4.25
same,"number of incorrect responses, Session 2",[5]; 0.1 mg/kg i.p.,3.00
same,"number of incorrect responses, Session 3",[5]; 0.1 mg/kg i.p.,2.88
same,"number of incorrect responses, Session 4",[5]; 0.1 mg/kg i.p.,1.88
same,"number of incorrect responses, Session 5",[5]; 0.1 mg/kg i.p.,1.38
same,"number of incorrect responses, Session 6",[5]; 0.1 mg/kg i.p.,1.13
same,minimal effective dose,[5]; rat,0.1 mg/kg
same,Survival Time,[6]; 1.0 mg/kg i.p.,220.3 ± 6.9 s
same,minimal effective dose,"[6]; Mus musculus, ip, mouse, i.p., read-out: dose showing the action of prolonging the survival time",1 mg/kg
"COc1ccc(C2CNC(=O)C2)cc1OC1CCCC1 (single isomer, unassigned; (+)) [(+) Rolipram]",Number of Correct Choice,[1]; [9],7.2 ± 0.3
same,Number of Incorrect Choice,[1]; [9],2.3 ± 1.6
same,dose showing the activity of improving space recognition disorders induced by scopolamine,"[1]; rat, p.o.",10 mg/kg
same,activity of improving memory and learning deficits,[2],showed the activity of improving memory and learning deficits
same,potency order in improving memory and learning deficits,[2],"more potent order of (-) rolipram, (±) rolipram and (+) rolipram"
same,"number of incorrect responses, Session 1",[3]; [10],4.00
same,"number of incorrect responses, Session 2",[3]; [10],4.17
same,"number of incorrect responses, Session 3",[3]; [10],3.00
same,"number of incorrect responses, Session 4",[3]; [10],2.00
same,"number of incorrect responses, Session 5",[3]; [10],1.83
same,"number of incorrect responses, Session 6",[3]; [10],1.67
same,dose inhibiting the increase in the number of incorrect responses induced by scopolamine,"[3]; rat, i.p.",1 mg/kg
same,safety,mouse,highly safe
same,LD50,[4]; ip,> 2300 mg/kg
same,LD50,[4]; po,> 4000 mg/kg
same,"number of incorrect responses, Session 1",[5]; 1 mg/kg i.p.,5.33
same,"number of incorrect responses, Session 2",[5]; 1 mg/kg i.p.,3.67
same,"number of incorrect responses, Session 3",[5]; 1 mg/kg i.p.,2.00
same,"number of incorrect responses, Session 4",[5]; 1 mg/kg i.p.,2.83
same,"number of incorrect responses, Session 5",[5]; 1 mg/kg i.p.,1.67
same,"number of incorrect responses, Session 6",[5]; 1 mg/kg i.p.,1.50
same,improvement of the disorders induced by cerebral ischemia,"[5]; rat, 1 mg/kg i.p.",no improvement
same,Survival Time,[6]; 3.0 mg/kg i.p.,217.2 ± 5.3 s
same,dose showing the action of prolonging the survival time,"[6]; mouse, i.p.",3.0 mg/kg
"COc1ccc(C2CNC(=O)C2)cc1OC1CCCC1 (single isomer, unassigned; (-)) [(-) Rolipram]",Number of Correct Choice,[1]; [11],6.9 ± 0.3
same,Number of Incorrect Choice,[1]; [11],3.2 ± 1.1
same,dose showing the activity of improving space recognition disorders induced by scopolamine,"[1]; rat, p.o.",0.01 mg/kg
same,activity of improving memory and learning deficits,[2],showed the activity of improving memory and learning deficits
same,potency order in improving memory and learning deficits,[2],"more potent order of (-) rolipram, (±) rolipram and (+) rolipram"
same,"number of incorrect responses, Session 1",[3]; [12],4.50
same,"number of incorrect responses, Session 2",[3]; [12],2.67
same,"number of incorrect responses, Session 3",[3]; [12],1.50
same,"number of incorrect responses, Session 4",[3]; [12],1.50
same,"number of incorrect responses, Session 5",[3]; [12],1.17
same,"number of incorrect responses, Session 6",[3]; [12],0.50
same,dose inhibiting the increase in the number of incorrect responses induced by scopolamine,"[3]; rat, i.p.",0.032 mg/kg
same,safety,mouse,highly safe
same,"number of incorrect responses, Session 1",[5]; 0.032 mg/kg i.p.,5.50
same,"number of incorrect responses, Session 2",[5]; 0.032 mg/kg i.p.,2.00
same,"number of incorrect responses, Session 3",[5]; 0.032 mg/kg i.p.,2.00
same,"number of incorrect responses, Session 4",[5]; 0.032 mg/kg i.p.,1.33
same,"number of incorrect responses, Session 5",[5]; 0.032 mg/kg i.p.,1.00
same,"number of incorrect responses, Session 6",[5]; 0.032 mg/kg i.p.,0.83
same,minimal effective dose,[5]; rat,0.032 mg/kg
same,Survival Time,[6]; 0.3 mg/kg i.p.,219.8 ± 6.3 s
same,dose showing the action of prolonging the survival time,"[6]; mouse, i.p.",0.3 mg/kg
"CN1[C@@H]2C[C@@H](OC(=O)[C@H](CO)c3ccccc3)C[C@H]1[C@@H]1O[C@@H]12 [Scopolamine, scopolamine]",Number of Incorrect Choice,"[1]; scopolamine alone 0.5 mg/kg i.p., Control 0.3 ± 0.1",7.1 ± 0.9
same,Number of Correct Choice,"[1]; scopolamine alone 0.5 mg/kg i.p., Control 7.9 ± 0.2",5.9 ± 0.2
same,"number of incorrect responses, Session 1",[3]; [13],6.21
same,"number of incorrect responses, Session 2",[3]; [13],4.74
same,"number of incorrect responses, Session 3",[3]; [13],3.24
same,"number of incorrect responses, Session 4",[3]; [13],3.11
same,"number of incorrect responses, Session 5",[3]; [13],2.68
same,"number of incorrect responses, Session 6",[3]; [13],2.32

# Reference: patent publication US5059612A, “Anti-dementia drug” (priority 1989, dated 1991)
